Data reported in patent publication US20060025474A1, “Bisphenyl compounds useful as vitamin D3 receptor agonists” (priority 2004, published 2006).

Columns and labels:
[1] = tested on: ovariectomized (OVX) rats; assay: Bone mineral density in the ovariectomized (OVX) rats (2); format: in vivo, Sprague-Dawley rats; details: orally seven times a week for 4 weeks; for Spinal BMD: L2-L5
Description: Bone Mineral Density in the Ovariectomized (OVX) Rats (2)
Alfacalcidol was synthesized in Chugai Pharmaceutical Co., Ltd., Japan, dissolved in a vehicle (medium chain triglyceride, MCT) and diluted to a given concentration. The stock solutions were protected from light and stored at 4° C.
Eight-month-old female Sprague-Dawley (Crl:CD(SD)) rats were purchased from Charles River Japan Inc. (Kanagawa, Japan) and acclimated under standard laboratory conditions at 23±2° C. and 40-70% humidity. The rats were allowed free access to tap water and commercial standard rodent chow CRF-1 (Oriental Yeast Co. Ltd., Japan).
Sham-operated (n=8) and the ovariectomized (OVX) rats were used. The OVX rats were divided into each group (n=8) one day after the surgery. In the sham and OVX control groups, rats received the vehicle (MCT) p.o. at a dose of 1 ml/kg body weight (BW) every day. Each compound was given orally seven times a week for 4 weeks.
During the 24 hours from the last administration, urine was collected with metabolic cage, and blood was drawn from the jugular vein under ether anesthesia. Blood and urine samples were centrifuged to obtain the supernatant, which were stored at −20° C. until assay. The lumbar vertebrae and femora were removed. The lumbar vertebra and the right femur were stored i 70% ethanol at 4° C. for the measurement of bone mineral density (BMD).
Serum and Urine Biochemistry
Serum calcium (Ca) and inorganic phosphorus (Pi) concentrations were measured with an autoanalyzer (Hitachi 7170, Tokyo, Japan). The serum osteocalcin concentration was measured with Osteocalcin rat ELISA system (Smersham Pharmacia Biotech, Tokyo, Japan). Urinary Ca, Pi, and creatinine (Cre) were measured with an autoanalyzer. Urinary deoxypyridinoline (D-Pyr) was measured using a Metra DPD EIA kit (Quidel Co., USA), and the data were corrected for urinary Cre concentrations.
Measurement of Bone Mineral Density
The second through fifth lumbar vertebaral (L2-L5) BMD (mg/cm^2) and femoral BMD were measured by dual-energy X-ray absorptiometry (DCS-600-EX, Aloka, Japan).

[2] = tested on: ECAC2 mRNA in Caco-2 cells; format: cell-based
Description: The mRNA Expression Assay of ECAC2 in Caco-2 Cells
The dispersed cells were plated in 48-well plate at a concentration of 6.3×10^4 cells/well and incubated for 4 days at 37° C. The culture medium (Dulbecco's Modified Eagle Medium (D-MEM) without NaHCO3 with 44 mM NaHCO3, 1 mM non-essential amino acids, and 2 mM L-glutamine, 90%; fetal bovine serum, 10%) was then replaced with the same medium containing various concentrations of LG190178 (the compound disclosed in WO00/10958 and the corresponding U.S. Pat. No. 6,218,430 B1) or the compounds of the present invention, and cells were cultured for 1 day at 37° C. The culture medium containing the compounds was changed twice per day.
Total RNA Isolation from Caco-2 Cell
Total RNA was isolated from Caco-2 cell following ABI PRISM™ 6100 Nucleic Acid PrepStation protocol from Applied Biosystems.
Real Time RT-PCR Assay of ECAC2
ECAC2 mRNA expression was determined using TaqMan One-step RT-PCR Master Mix Reagents Kit and PRISM7000 systems from Applied Biosystems.
Primer information and cycle conditions are 1)ECAC2, forward 5′-[…]-3′, reverse 5′-GTCCTCTGTCTGGMGATGA-3′, Taqman probe 5′-[…]-3′, 55 cycles, annealing temperature (Ta)=60° C.; 2)GAPDH, forward 5′-GMGGTGMGGTCGGAGTC-3′, reverse 5′-GMGATGGTGATGGGATTTC-3′, Taqman probe 5′-[…]-3′, 55 cycles, Ta=60° C. ECAC2 mRNA values were normalized for the expression of GAPDH mRNA within each sample.
Comparison of ECAC2 mRNA Value
The EC50 values of ECAC2 mRNA values were analyzed by Emax models. The ECAC2 mRNA ratio was calculated as the ratio of the EC50 value of the compounds to that of LG190178. ECAC2 is a channel-like transporter mediating intestinal calcium absorption. It is described in J Biol Chem. Aug. 6, 1999; 274(32):22739-46 for example.

Row | ECaC-2 mRNA induction activity in Caco-2 cells [2] | SMILES | other results
1 |  | C=C1/C(=C\C=C2/CCC[C@]3(C)[C@@H]([C@H](C)CCCC(C)C)CC[C@@H]23)C[C@@H](O)C[C@@H]1O [Alfacalcidol] | serum Ca ([1]; 0.125 microgram/kg/week): 10.2 mg/dL; Spinal BMD ([1]; 0.125 microgram/kg/week): 182.1 mg/cm2; serum Ca ([1]; 0.25 microgram/kg/week): 10.6 mg/dL; Spinal BMD ([1]; 0.25 microgram/kg/week): 180.9 mg/cm2; serum Ca ([1]; 0.5 microgram/kg/week): 10.7 mg/dL; Spinal BMD ([1]; 0.5 microgram/kg/week): 185.1 mg/cm2
2 | 556% | C=C1/C(=C\C=C2/CCC[C@]3(C)[C@@H]([C@H](C)CCCC(C)(C)O)CC[C@@H]23)C[C@@H](O)C[C@@H]1O [1,25(OH)2D3, reference compound] | 
3 | 102% | CCC(O)(/C=C/c1ccc(C(CC)(CC)c2ccc(OCCCCC(=O)O)c(C)c2)cc1C)CC [Example 81, 5-(4-{1-Ethyl-1-[4-((E)-3-ethyl-3-hydroxy-pent-1-enyl)-3-methyl-phenyl]-propyl}-2-methyl-phenoxy)-pentanoic acid] | 
4 | 662% | CCC(CC)(c1ccc(/C=C/C(O)(C(F)(F)F)C(F)(F)F)c(C)c1)c1ccc(OC[C@@H]2CCCC(=O)O2)c(C)c1 [Example 55, (S)-6-(4-{1-ethyl-1-[3-methyl-4-((E)-4,4,4-trifluoro-3-hydroxy-3-trifluoromethyl-but-1-enyl)-phenyl]-propyl}-2-methyl-phenoxymethyl)-tetrahydro-pyran-2-one] | 
5 | 161% | CCC(CC)(c1ccc(CCC(O)(C(F)(F)F)C(F)(F)F)c(C)c1)c1ccc(OC[C@@H](O)CCC(=O)O)c(C)c1 [Example 31, (S)-5-(4-{1-ethyl-1-[3-methyl-4-(4,4,4-trifluoro-3-hydroxy-3-trifluoromethyl-butyl)-phenyl]-propyl}-2-methyl-phenoxy)-4-hydroxy-pentanoic acid] | 
6 | 987% | CCC(CC)(c1ccc(/C=C/C(O)(C(F)(F)F)C(F)(F)F)c(C)c1)c1ccc(OC[C@H](O)CCC(=O)O)c(C)c1 [Example 49, 5-(4-{1-ethyl-1-[3-methyl4-((E)4,4,4-trifluoro-3-hydroxy-3-trifluoromethyl-but-1-enyl)-phenyl]-propyl}-2-methyl-phenoxy)4(R)-hydroxy-pentanoic acid] | 
7 | 1777% | CCC(CC)(c1ccc(/C=C/C(O)(C(F)(F)F)C(F)(F)F)c(C)c1)c1ccc(OC[C@@H](O)CCC(=O)O)c(C)c1 [Example 30, (S)-5-(4-{1-ethyl-1-[3-methyl-4-((E)-4,4,4-trifluoro-3-hydroxy-3-trifluoromethyl-but-1-enyl)-phenyl]-propyl}-2-methyl-phenoxy)-4-hydroxy-pentanoic acid] | 
8 | 178% | CCC(CC)(c1ccc(CCC(O)(C(F)(F)F)C(F)(F)F)c(C)c1)c1ccc(OCC(CO)CO)c(C)c1 [Example 79, 2-(4-{1-ethyl-1-[3-methyl-4-(4,4,4-trifluoro-3-hydroxy-3-trifluoromethyl-butyl)-phenyl]-propyl}-2-methyl-phenoxymethyl)-propane-1,3-diol] | 
9 | 226% | CCC(CC)(c1ccc(/C=C/C(O)(C(F)(F)F)C(F)(F)F)c(C)c1)c1ccc(OCCCCCC(=O)O)c(C)c1 [Example 92, 6-(4-{1-Ethyl-1-[3-methyl-4-((E)4,4,4-trifluoro-3-hydroxy-3-trifluoromethyl-but-1-enyl)-phenyl]-propyl}-2-methyl-phenoxy)-hexanoic acid] | 
10 | 191% | CCCc1cc(C(CC)(CC)c2ccc(OC[C@@H](O)CCC(=O)O)c(C)c2)ccc1/C=C/C(O)(CC)CC [Example 170, (S)-5-(4-{1-Ethyl-1-[4-((E)-3-ethyl-3-hydroxy-pent-1-enyl)-3-propyl-phenyl]-propyl}-2-methyl-phenoxy)4-hydroxy-pentanoic acid] | 
11 | 271% | CCC(O)(/C=C/c1ccc(C(CC)(CC)c2ccc(OCC(=O)CCC(=O)O)c(C)c2)cc1C)CC [Example 198, (E)-5-(4-{1-Ethyl-1-[4-(3-ethyl-3-hydroxy-pent-1-enyl)-3-methyl-phenyl]-propyl}-2-methyl-phenoxy)-4-oxo-pentanoic acid] | 
12 | 355% | CCC(CC)(c1ccc(C#CC(O)(C(F)(F)F)C(F)(F)F)c(C)c1)c1ccc(OC[C@@H](O)CO)c(C)c1 [Example 68, 3-(4-{1-Ethyl-1-[3-methyl4-(4,4,4-trifluoro-3-hydroxy-3-trifluoromethyl-but-1-ynyl)-phenyl]-propyl}-2-methyl-phenoxy)-propane-1,2(S)-diol] | 
13 | 1784% | CCC(CC)(c1ccc(/C=C/C(O)(C(F)(F)F)C(F)(F)F)c(C)c1)c1ccc(OC[C@H](O)CCCO)c(C)c1 [Example 154, (R)-5-(4-{1-Ethyl-1-[3-methyl4-((E)-4,4,4-trifluoro-3-hydroxy-3-trifluoromethyl-but-1-enyl)-phenyl]-propyl}-2-methyl-phenoxy)-pentane-1,4-diol] | 
14 | 86% | CCC(CC)(c1ccc(/C=C/C(O)(C(F)(F)F)C(F)(F)F)c(C)c1)c1ccc(OC[C@H]2CCCO2)c(C)c1 [Example 155, (E)4-[4-(1-Ethyl-1-{3-methyl4-[(R)-1-(tetrahydro-furan-2-yl)methoxy]-phenyl}-propyl)-2-methyl-phenyl]-11,11-trifluoro-2-trifluoromethyl-but-3-en-2-ol] | 
15 | 289% | CCC(CC)(c1ccc(/C=C/C2(O)CCCC2)c(C)c1)c1ccc(OCCCCC(=O)O)c(C)c1 [Example 86, 5-[4-(1-ethyl-1-{4-[(E)-2-(1-hydroxy-cyclopentyl)-vinyl]-3-methyl-phenyl}-propyl)-2-methyl-phenoxy]-pentanoic acid] | 
16 | 1647% | CCC(CC)(c1ccc(/C=C/C(O)(C(F)(F)F)C(F)(F)F)c(C)c1)c1ccc(OC[C@@H]2CCCO2)c(C)c1 [Example 157, (E)4-[4-(1-Ethyl-1-{3-methyl-4-[(S)-1-(tetrahydro-furan-2-yl)methoxy]-phenyl}-propyl)-2-methyl-phenyl]-1,1,1-trifluoro-2-trifluoromethyl-but-3-en-2-ol] | 
17 | 2093% | CCC(CC)(c1ccc(/C=C/C(O)C(C)(C)C)c(C)c1)c1ccc(OC[C@@H](O)CCC(=O)O)c(C)c1 (stereo partly drawn) [Example 28, 5-(4-{1-ethyl-1-[4-((E)-3-hydroxy-4,4-dimethyl-pent-1-enyl)-3-methyl-phenyl]-propyl}-2-methyl-phenoxy)-4(S)-hydroxy-pentanoic acid] | 
18 | 4760% | CCC(CC)(c1ccc(/C=C/C(O)(C(F)(F)F)C(F)(F)F)c(C)c1)c1ccc(OC[C@@H](O)CCCO)c(C)c1 [Example 156, (S)-5-(4-{1-Ethyl-1-[3-methyl4-((E)4,4,4-trifluoro-3-hydroxy-3-trifluoromethyl-but-1-enyl)-phenyl]-propyl}-2-methyl-phenoxy)-pentane-1,4-diol] | 
